Assay results published in US20110020312A1, “METHODS FOR TREATMENT OF METABOLIC DISORDERS USING EPIMETABOLIC SHIFTERS, MULTIDIMENSIONAL INTRACELLULAR MOLECULES, OR ENVIRONMENTAL INFLUENCERS” (priority 2009, published 2011).

Key:
[1] = system: SCC cells; assay: Real-time PCR Heat Shock Protein Array; format: cell-based; settings: 100 μM
Description: (§1) The control cells were untreated cells.
Heat Shock Arrays were run for SCC cells and the data of regulated genes is summarized below in Table 13.

[2] = system: Pancreatic Cancer Cells (PaCa2); assay: Real-time PCR Diabetes Array; format: cell-based; settings: 100 uM Q10, various times
Description: Experiments were carried out essentially as described above.

[3] = system: HK-2 cells; assay: Diabetes PCR array in cell model for diabetes (22 mM glucose); format: cell-based, human
Description: The HK-2 and HASMC cells are normally maintained in culture at 5.5 mM glucose, which is a concentration that corresponds to a range considered normal in human blood. However, in order to simulate a diabetic environment, both cell lines were subsequently maintained at 22 mM glucose, which corresponds to the range observed in human blood associated with chronic hyperglycemia. The cells were subsequently allowed to propagate over 3 passages so that the intracellular regulation processes were functionally adapted to mimic a diabetic state. The choice of cell line was based on the physiologic influence of diabetes on renal dysfunction and progression to end-stage renal disease (ESRD) in addition to the progressive pathophysiology of a compromised cardiovascular function.
The Diabetes PCR array (SABiosciences) offers a screen for 84 genes simultaneously.
A stringent analysis of the Real time PCR data of the HK-2 samples on the Diabetes Arrays (Cat # PAHS-023E, SABiosciences Frederick Md.) was made to exclude all results where gene regulation was not at least a two-fold regulation over HK-2 normal untreated cells with a p value of less than 0.05.

[4] = system: ATP Citrate Lyase (ACL); assay: Western blot, ATP Citrate Lyase levels in normal and cancer cells; format: cell-based, human
Description: The whole cell pellets were resuspended one at a time in 1 mL of C7 buffer and transferred to labeled 15 mL tubes. The samples were then sonicated in the cold room on ice using 6 sonic pulses with the setting at #14. The samples were spun for a short time to 2500 g after sonication and the samples transferred to 2 ml tubes. The pH was verified of each sample (pH should be 9.0) using the foam remaining in the […] sample tubes.
After transfer each of the blots was placed in between 2 Whatman Filter papers and dried for 15-20 minutes. After drying the blots were labeled with the date, the type of samples and either blot 1 or blot 2 using a HB pencil. The molecular weight markers were outlined with the pencil and with single lines for the blue and a doublet for the colored markers. The blots were activated with methanol for 5 seconds, washed with water for 5 minutes, and TBST for 15 minutes. The blots were blocked for 1 hour with 5% blocking reagent in TBS-T at room temperature and then washed 3 times with TBS-T (1×-15′; 2×5′ each). Blot 1 was probed with the primary antibody for IDH1 (Cell Signaling #3997) in TBST with 5% BSA (at 1:1000 dilutions) and blot 2 with the rabbit polyclonal antibody for ATP Citrate Lyase in 5% BSA (Cell Signaling #4332) at 1:1000 dilution by incubation overnight at 4 deg C. with shaking. After the overnight incubation with primary antibodies, the blots were washed 3 times with TBS-T (1×-15′; 2×5′ each) and probed with the secondary antibody (antirabbit; 1:10,000 dilution) for 1 h on the orbital tilting shaker at room temperature. After 1 h of incubation with secondary antibodies, the blots were washed 3 times with TBS-T (1×-15′; 2×5′ each) and then incubated with ECF reagent for 5 mins and then each blot scanned with 5100 Fuji Laser scanner at 25 uM resolution, 16 bit, green laser, at 400V and at 500 V.
The samples were processed and run on a 4-12% Bis-Tris Novex NuPAGE gel as described above. The gels were run, transferred and stained essentially as described above.
The Isocitrate dehydrogenase blot was stripped by incubating for 30 minutes with methanol, followed by two 10 minute washes with TBS-T, then 30 minutes of incubation with stripping buffer at 50 deg C., and followed by two washes with 100 ml or more of TBS-T for 30′ each. The blot was scanned in laser scanner to check for complete stripping. The blot was activated with methanol for 5 seconds, washed with water for 5 minutes, and TBST for 15 minutes. The blot was blocked for 1 hour with 5% blocking reagent in TBS-T at room temperature and then washed 3 times with TBS-T (1×-15′; 2×5′ each). This was then probed with the rabbit polyclonal antibody for ATP Citrate Lyase in 5% BSA (Cell Signaling #4332) at 1:1000 dilution overnight at 4 deg C. with shaking. After the overnight incubation with primary antibody for ATP Citrate Lyase, the membrane was washed 3 times with TBS-T (1×-15′; 2×5′ each) and probed with the secondary antibody (antirabbit; 1:10,000 dilution) for 1 h on the orbital tilting shaker at room temperature. After 1 h of incubation with secondary antibodies, the blot was washed 3 times with TBS-T (1×-15′; 2×5′ each) and then incubated with ECF reagent for 5 minutes and then each blot scanned with 5100 Fuji Laser scanner at 25 uM resolution, 16 bit, green laser, at 400V and at 500 V.
In this experiment (western blot experiment 3), and in all of the experiments described below in this Example (i.e., western blot experiments 4 through 9), the cells were additionally treated with either 5 mM glucose (“5G”) or 22 mM glucose (“22G”). The samples derived from the cells were processed and run on a 4-12% Bis-Tris Novex NuPAGE gel as described above. The gels were run, transferred and stained essentially as described above.
The levels of IDH1, ATP citrate lyase and actin levels were determined by probing the blots with primary antibodies for IDH1, ATP citrate lyase and actin, essentially as described above.

[5] = system: SCC cells; assay: Real-time PCR Diabetes Array; format: cell-based; settings: 100 μM
Description: as §1

## COC1=C(OC)C(=O)C(C/C=C(\C)CC/C=C(\C)CC/C=C(\C)CC/C=C(\C)CC/C=C(\C)CC/C=C(\C)CC/C=C(\C)CC/C=C(\C)CC/C=C(\C)CCC=C(C)C)=C(C)C1=O [Q10, Coenzyme Q10]
[1]; at 6 hours
  DNAJA1 gene Regulation: Up regulated at 6
  DNAJB5 gene Regulation: Down regulated
  DNAJB13 gene Regulation: Down regulated
  DNAJC4 gene Regulation: Down regulated
  DNAJC5B gene Regulation: Down regulated
  DNAJC12 gene Regulation: Down regulated
  HSPA8 gene Regulation: Up regulated at 6
  HSPH1 gene Regulation: Up regulated at 6
[1]; at 24 hours
  CCT6B gene Regulation: Down regulated
[2]
  genes modulated by Q10 treatment (Diabetes arrays): ABCC8, ACLY, ADRB3, CCL5, CEACAM1, CEBRA, FOXG1, FOXP3, G6PD, GLP1R, GPD1, HNF4A, ICAM1, IGFBP5, INPPL1, IRS2, MAPK14, ME1, NFKB1, PARP1, PIK3C2B, PIK3CD, PPARGC1B, PRKAG2, PTPN1, PYGL, SLC2A4, SNAP25, HNF1B, TNRFSF1A, TRIB3, VAPA, VEGFA, IL4R and IL6
[3]; HK2(H) cells, particularly with 100 μM Coenzyme Q10
  CEACAM1 RNA transcript: highly upregulated
[3]; diabetic HK-2 cells
  insulin receptor (INSR) expression: altered
[4]; HDFa, HDF-50
  ATPCL Average Normalized Intensity: ~17500
[4]; HDFa, HDF-100
  ATPCL Average Normalized Intensity: ~25000
[4]; HepG2, Hep5g48-50
  ATP Citrate Lysase Normalized Intensity as %: 85%
[4]; HepG2, Hep5g48-100
  ATP Citrate Lysase Normalized Intensity as %: 79%
[4]; HepG2, Hep22G48-50
  ATP Citrate Lysase Normalized Intensity as %: 129%
[4]; HepG2, Hep22G48-100
  ATP Citrate Lysase Normalized Intensity as %: 209%
[4]; MCF-7, MCF-50
  ATPCL Average Normalized Intensity: ~7500
[4]; MCF-7, MCF-100
  ATPCL Average Normalized Intensity: ~12500
[4]; PACA2, PACA5g48-50
  ATP Citrate Lysase Normalized Intensity as %: 68%
[4]; PACA2, PACA5g48-100
  ATP Citrate Lysase Normalized Intensity as %: 42%
[4]; PACA2, PACA22G48-50
  ATP Citrate Lysase Normalized Intensity as %: 112%
[4]; PACA2, PACA22G48-100
  ATP Citrate Lysase Normalized Intensity as %: 174%
[4]; cancer cells
  expression of ACL enzymes: dose-dependent decrease
[4]; normal cells
  expression of ACL: trend towards increased expression
[5]; at 6 and 24 hours
  TNFRSF1A gene Regulation: Down regulated
[5]; at 6 hours
  G6PD gene Regulation: Down regulated
  ICAM1 gene Regulation: Down regulated
  INPPL1 gene Regulation: Down regulated
  NOS3 gene Regulation: Down regulated
  PIK3CD gene Regulation: Down regulated
  PPARA gene Regulation: Down regulated
  PYGL gene Regulation: Down regulated
  SREBF1 gene Regulation: Down regulated
  STXBP2 gene Regulation: Down regulated
  TNF gene Regulation: Down regulated
  VEGFA gene Regulation: Down regulated
